Source: PubChem BioAssay AID248 (DTP/NCI, 2004)
Several values for one entry are separate records, joined by “and”; a condition that tells them apart may be missing. Equal entries are not always repeated. Inconclusive results and toxic doses are left out. No stated cut-off is given here; in the data, active means T/C of 150% or more; inactive means T/C below 125%.

Test system: L1210 leukemia ip in BDF1 mice, survival T/C
Assay: NCI In Vivo Anticancer Drug Screen. Data for tumor model L1210 Leukemia (intraperitoneal) in B6D2F1 (BDF1) mice
Details: endpoint: mean survival time, higher = longer survival
Outline: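 Value reflects the ratio of survival in compound-treated mice to survival in vehicle-treated controls, with both groups carrying the same transplanted tumor.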

[1] = dose: 100.0 mg/kg/injection, schedule: Q01DX001 (ip), vehicle: Klucel (hydroxypropylcellulose) (HPC)
[2] = dose: 200.0 mg/kg/injection, schedule: Q01DX001 (ip), vehicle: Klucel (hydroxypropylcellulose) (HPC)
[3] = dose: 400.0 mg/kg/injection, schedule: Q01DX001 (ip), vehicle: Klucel (hydroxypropylcellulose) (HPC)
[4] = dose: 100.0 mg/kg/injection, schedule: Q04DX002 (ip), vehicle: saline with Tween-80
[5] = dose: 200.0 mg/kg/injection, schedule: Q04DX002 (ip), vehicle: saline with Tween-80
[6] = dose: 400.0 mg/kg/injection, schedule: Q04DX002 (ip), vehicle: saline with Tween-80
[7] = dose: 100.0 mg/kg/injection, schedule: Q04DX003 (ip), vehicle: saline
[8] = dose: 200.0 mg/kg/injection, schedule: Q04DX003 (ip), vehicle: saline
[9] = dose: 100.0 mg/kg/injection, schedule: Q01DX001 (ip), vehicle: saline
[10] = dose: 200.0 mg/kg/injection, schedule: Q01DX001 (ip), vehicle: saline
[11] = dose: 400.0 mg/kg/injection, schedule: Q01DX001 (ip), vehicle: saline
[12] = dose: 100.0 mg/kg/injection, schedule: Q01DX001 (ip), vehicle: saline with Tween-80
[13] = dose: 200.0 mg/kg/injection, schedule: Q01DX001 (ip), vehicle: saline with Tween-80
[14] = dose: 400.0 mg/kg/injection, schedule: Q01DX001 (ip), vehicle: saline with Tween-80
[15] = dose: 100.0 mg/kg/injection, schedule: Q04DX003 (ip), vehicle: saline with Tween-80
[16] = dose: 200.0 mg/kg/injection, schedule: Q04DX003 (ip), vehicle: saline with Tween-80
[17] = dose: 400.0 mg/kg/injection, schedule: Q04DX003 (ip), vehicle: saline with Tween-80

Measured: T/C

CC(=O)Nc1c2ccccc2nc2c1c(C)c(C)c1ccccc12
inactive: dose: 50.0 mg/kg/injection, schedule: Q01DX001 (ip), vehicle: Klucel (hydroxypropylcellulose) (HPC) 87 % of control | [1] 89 % of control | [2] 94 % of control | [3] 91 % of control

CCN(CC)CCCC(C)Nc1cc(OC)cc2cccnc12 (centres undefined)
inactive: dose: 10.0 mg/kg/injection, schedule: Q01DX009 (ip), vehicle: Klucel (hydroxypropylcellulose) (HPC) 93 % of control | dose: 20.0 mg/kg/injection, schedule: Q01DX001 (ip), vehicle: Klucel (hydroxypropylcellulose) (HPC) 100 % of control | dose: 20.0 mg/kg/injection, schedule: Q01DX009 (ip), vehicle: Klucel (hydroxypropylcellulose) (HPC) 96 % of control | dose: 40.0 mg/kg/injection, schedule: Q01DX001 (ip), vehicle: Klucel (hydroxypropylcellulose) (HPC) 100 % of control | dose: 40.0 mg/kg/injection, schedule: Q01DX009 (ip), vehicle: Klucel (hydroxypropylcellulose) (HPC) 96 % of control

Cc1cccc(P(=O)(c2ccccc2)c2ccccc2)c1 (tested in a mixture with another compound)
inactive: [4] 104 % of control | [5] 96 % of control | [6] 88 % of control

COc1nc(=S)n2[nH]cnc2n1
inactive: dose: 12.5 mg/kg/injection, schedule: Q01DX009 (ip), vehicle: saline 89 % of control | dose: 25.0 mg/kg/injection, schedule: Q01DX009 (ip), vehicle: saline 94 % of control | dose: 50.0 mg/kg/injection, schedule: Q01DX009 (ip), vehicle: saline 109 % of control | dose: 50.0 mg/kg/injection, schedule: Q04DX003 (ip), vehicle: saline 102 % of control | [7] 91 % of control | [8] 92 % of control

CCCCNC(=O)NCCN(C)c1ccccc1
inactive: dose: 100.0 mg/kg/injection, schedule: Q04DX002 (ip), vehicle: Klucel (hydroxypropylcellulose) (HPC) 94 % of control | dose: 200.0 mg/kg/injection, schedule: Q04DX002 (ip), vehicle: Klucel (hydroxypropylcellulose) (HPC) 97 % of control | dose: 400.0 mg/kg/injection, schedule: Q04DX002 (ip), vehicle: Klucel (hydroxypropylcellulose) (HPC) 102 % of control

COc1ccc2nc3cc(Cl)ccc3c(NCCCNCCCl)c2c1
inactive: dose: 10.0 mg/kg/injection, schedule: Q04DX003 (ip), vehicle: Klucel (hydroxypropylcellulose) (HPC) 115 % of control | dose: 20.0 mg/kg/injection, schedule: Q04DX003 (ip), vehicle: Klucel (hydroxypropylcellulose) (HPC) 103 % of control | dose: 40.0 mg/kg/injection, schedule: Q04DX003 (ip), vehicle: Klucel (hydroxypropylcellulose) (HPC) 105 % of control

C#CCCCCCCC#CCCCCCCC#C
inactive: dose: 100.0 mg/kg/injection, schedule: Q04DX003 (ip), vehicle: acetone 100 % of control | dose: 200.0 mg/kg/injection, schedule: Q04DX003 (ip), vehicle: acetone 110 % of control

C=CCc1cnc(SCc2ccccc2)[nH]c1=O
inactive: dose: 100.0 mg/kg/injection, schedule: Q01DX001 (ip), vehicle: gum acacia 101 % of control | dose: 200.0 mg/kg/injection, schedule: Q01DX001 (ip), vehicle: gum acacia 91 % of control | dose: 400.0 mg/kg/injection, schedule: Q01DX001 (ip), vehicle: gum acacia 94 % of control

CC1(C)OC(CCl)C2OC(C)(C)OC(CCl)C2O1 (centres undefined)
inactive: [9] 93 % of control | [10] 88 % of control | [11] 104 % of control

Clc1ccccc1C=NCC1CCC(CN=Cc2ccccc2Cl)CC1 (centres undefined)
inactive: dose: 50.0 mg/kg/injection, schedule: Q01DX009 (ip), vehicle: saline with Tween-80 92 % of control and 100 % of control | [12] 106 % of control | dose: 100.0 mg/kg/injection, schedule: Q01DX009 (ip), vehicle: saline with Tween-80 92 % of control | [4] 104 % of control and 88 % of control | [13] 93 % of control | dose: 200.0 mg/kg/injection, schedule: Q01DX009 (ip), vehicle: saline with Tween-80 90 % of control | [5] 100 % of control | [14] 98 % of control | [6] 89 % of control

O=C(C[n+]1cccc(OC(=O)c2ccccc2)c1)c1ccc(-c2ccccc2)cc1
inactive: dose: 75.0 mg/kg/injection, schedule: Q04DX003 (ip), vehicle: Klucel (hydroxypropylcellulose) (HPC) 100 % of control | [1] 100 % of control | dose: 150.0 mg/kg/injection, schedule: Q04DX003 (ip), vehicle: Klucel (hydroxypropylcellulose) (HPC) 91 % of control | [2] 97 % of control | dose: 300.0 mg/kg/injection, schedule: Q04DX003 (ip), vehicle: Klucel (hydroxypropylcellulose) (HPC) 96 % of control | [3] 101 % of control

O=S(=O)(c1ccccc1)C1CC1c1ccccc1 (centres undefined)
inactive: dose: 50.0 mg/kg/injection, schedule: Q01DX009 (ip), vehicle: acetone 95 % of control | [9] 94 % of control | dose: 100.0 mg/kg/injection, schedule: Q01DX009 (ip), vehicle: acetone 93 % of control | [7] 98 % of control | [10] 102 % of control | dose: 200.0 mg/kg/injection, schedule: Q01DX009 (ip), vehicle: acetone 97 % of control | [8] 96 % of control | [11] 102 % of control | dose: 400.0 mg/kg/injection, schedule: Q04DX003 (ip), vehicle: saline 98 % of control

Nc1ccc(S(=O)(=O)c2ccc(NCCc3ccccn3)cc2)cc1
inactive: [15] 97 % of control | [16] 105 % of control | [17] 100 % of control

CCC(CC)C(=O)NC(N)=O
inactive: dose: 100.0 mg/kg/injection, schedule: Q04DX003 (ip), vehicle: Klucel (hydroxypropylcellulose) (HPC) 98 % of control | dose: 200.0 mg/kg/injection, schedule: Q04DX003 (ip), vehicle: Klucel (hydroxypropylcellulose) (HPC) 103 % of control | dose: 400.0 mg/kg/injection, schedule: Q04DX003 (ip), vehicle: Klucel (hydroxypropylcellulose) (HPC) 98 % of control

c1ccc(CCN2CCCCC2)nc1
inactive: dose: 1.56 mg/kg/injection, schedule: Q01DX009 (ip), vehicle: saline 94 % of control | dose: 3.13 mg/kg/injection, schedule: Q01DX009 (ip), vehicle: saline 93 % of control | dose: 6.25 mg/kg/injection, schedule: Q01DX009 (ip), vehicle: saline 89 % of control

CCOC(=O)c1nc(SC)n(Cc2ccccc2)c1C(=O)OCC
inactive: dose: 25.0 mg/kg/injection, schedule: Q04DX002 (ip), vehicle: saline with Tween-80 94 % of control and 103 % of control | dose: 50.0 mg/kg/injection, schedule: Q04DX002 (ip), vehicle: saline with Tween-80 106 % of control and 91 % of control | [12] 95 % of control and 98 % of control | [15] 99 % of control | [13] 102 % of control and 91 % of control | [16] 100 % of control | [14] 95 % of control and 91 % of control | [6] 94 % of control and 101 % of control | [17] 99 % of control
